Laboratory results: ChEMBL document CHEMBL4480391, “Discovery and synthesis of sulfur-containing 6-substituted 5,8-dimethoxy-1,4-naphthoquinone oxime derivatives as new and potential anti-MDR cancer agents” (Eur J Med Chem, 2019)

What was measured:
[1] = Selectivity index, ratio of IC50 for human HSF cells to IC50 for human HCT15 cells; type: toxicity; settings: HSF cells versus HCT15 cells, read-out: Ratio IC50
K562 = test: Cytotoxicity against human K562 cells after 72 hrs by MTT assay; type: functional, cell-based; settings: K562, 72 h
[2] = Cytotoxicity against human HSF cells after 72 hrs by MTT assay; type: cell-based
HCT-15 = test: Cytotoxicity against human HCT15 cells after 72 hrs by MTT assay; type: functional, cell-based; settings: HCT-15, 72 h
MGC-803 = test: Cytotoxicity against human MGC803 cells after 72 hrs by MTT assay; type: functional, cell-based; settings: MGC-803, 72 h
[3] = Selectivity ratio of IC50 for human A549 cells to IC50 for human A549/TAX cells; type: functional
[4] = Cytotoxicity against human […] cells after 72 hrs by MTT assay; type: functional, cell-based
MCF7 = test: Cytotoxicity against human MCF7 cells after 72 hrs by MTT assay; type: functional, cell-based; settings: MCF7, 72 h
[5] = Selectivity ratio of IC50 for human […] cells to IC50 for human Bel7402/5-FU cells; type: functional
A549 = test: Cytotoxicity against human A549 cells after 72 hrs by MTT assay; type: functional, cell-based; settings: A549, 72 h
A549/TR = test: Cytotoxicity against human A549/TAX cells after 72 hrs by MTT assay; type: functional, cell-based
NCI/ADR-RES = test: Cytotoxicity against human MCF7/ADR cells after 72 hrs by MTT assay; type: functional, cell-based
Bel7402/5-FU = test: Cytotoxicity against human Bel7402/5-FU cells after 72 hrs by MTT assay; type: functional, cell-based
[6] = Selectivity ratio of IC50 for human MCF7 cells to IC50 for human MCF7/ADR cells; type: functional

| Compound | selectivity ratio [1] | IC50 (K562) | IC50 [2] | IC50 (HCT-15) | IC50 (MGC-803) | Ratio IC50 [3] | IC50 [4] | IC50 (MCF7) | Ratio IC50 [5] | IC50 (A549) | IC50 (A549/TR) | IC50 (NCI/ADR-RES) | IC50 (Bel7402/5-FU) | Ratio IC50 [6] |
| --- | --- | --- | --- | --- | --- | --- | --- | --- | --- | --- | --- | --- | --- | --- |
| CCC(SCCC(C)C)c1cc(OC)c2c(c1OC)/C(=N/O)C=C/C2=N\O (stereo not drawn) | > 22.4 | 3.28 µM | > 50 µM | 5.23 µM | 10.4 µM | – | – | – | – | – | – | – | – | – |
| CCCCCCCCCCCCCCC(c1cc(OC)c2c(c1OC)/C(=N/O)C=C/C2=N\O)S(=O)(=O)CCC(C)C (stereo not drawn) | > 7.44 | 1.56 µM | > 50 µM | 2.74 µM | 3.53 µM | – | – | – | – | – | – | – | – | – |
| CC(=O)O[C@H]1C(=O)[C@@]2(C)[C@H]([C@H](OC(=O)c3ccccc3)[C@]3(O)C[C@H](OC(=O)[C@H](O)[C@@H](NC(=O)c4ccccc4)c4ccccc4)C(C)=C1C3(C)C)[C@]1(OC(C)=O)CO[C@@H]1C[C@@H]2O [PACLITAXEL] | – | – | – | – | – | 0.02 | 0.65 µM | 0.47 µM | 0.06 | 0.54 µM | 24.5 µM | 17.7 µM | 10.5 µM | 0.03 |
| CCCCCCCCC(c1cc(OC)c2c(c1OC)/C(=N/O)C=C/C2=N\O)S(=O)(=O)CCC(C)C (stereo not drawn) | > 12.6 | 1.29 µM | > 50 µM | 3.89 µM | 7.82 µM | – | – | – | – | – | – | – | – | – |
| CCC(SC(=O)c1cc(OC)c(OC)c(OC)c1)c1cc(OC)c2c(c1OC)/C(=N/O)C=C/C2=N\O (stereo not drawn) | > 18.2 | 14.4 µM | > 50 µM | 12.5 µM | 30.3 µM | – | – | – | – | – | – | – | – | – |
| CCCCCCCCC(SC(=O)c1ccc(C)cc1)c1cc(OC)c2c(c1OC)/C(=N/O)C=C/C2=N\O (stereo not drawn) | > 94.3 | 0.97 µM | > 50 µM | 0.53 µM | 0.94 µM | 7.62 | 0.93 µM | 18.9 µM | 1.22 | 13.9 µM | 1.82 µM | 3.98 µM | 0.76 µM | 4.74 |
| CCCCCCCCCCCCCCC(SCCC(C)C)c1cc(OC)c2c(c1OC)/C(=N/O)C=C/C2=N\O (stereo not drawn) | > 2.22 | 25.7 µM | > 50 µM | 22.5 µM | 38.2 µM | – | – | – | – | – | – | – | – | – |
| CCCCCCCCC(SCC)c1cc(OC)c2c(c1OC)/C(=N/O)C=C/C2=N\O (stereo not drawn) | > 21.6 | 2.71 µM | > 50 µM | 2.32 µM | 4.39 µM | – | – | – | – | – | – | – | – | – |
| CCCCC(SC(=O)c1cc(OC)c(OC)c(OC)c1)c1cc(OC)c2c(c1OC)/C(=N/O)C=C/C2=N\O (stereo not drawn) | > 6.47 | 6.35 µM | > 50 µM | 7.73 µM | 14.7 µM | – | – | – | – | – | – | – | – | – |
| CC(C)=CC[C@@H](O)C1=CC(=O)c2c(O)ccc(O)c2C1=O [SHIKONIN] | 1.45 | 1.02 µM | 1.25 µM | – | – | – | – | – | – | – | – | – | – | – |
| CCCCCCCCC(SC(=O)c1ccco1)c1cc(OC)c2c(c1OC)/C(=N/O)C=C/C2=N\O (stereo not drawn) | > 20.7 | 1.38 µM | > 50 µM | 2.42 µM | 5.26 µM | – | – | – | – | – | – | – | – | – |
| CCCCCCCC(SC(=O)c1cc(OC)c(OC)c(OC)c1)c1cc(OC)c2c(c1OC)/C(=N/O)C=C/C2=N\O (stereo not drawn) | > 51 | 0.85 µM | > 50 µM | 0.98 µM | 1.21 µM | 7.96 | 2.96 µM | 20.7 µM | 1.9 | 17.9 µM | 2.25 µM | 7.88 µM | 1.56 µM | 2.7 |
| CCCCCCC(SCCC(C)C)c1cc(OC)c2c(c1OC)/C(=N/O)C=C/C2=N\O (stereo not drawn) | > 48.1 | 1.28 µM | > 50 µM | 1.04 µM | 1.9 µM | – | – | – | – | – | – | – | – | – |
| CCCCCCCCCCCCC(SC(=O)c1cc(OC)c(OC)c(OC)c1)c1cc(OC)c2c(c1OC)/C(=N/O)C=C/C2=N\O (stereo not drawn) | > 7.85 | 4.41 µM | > 50 µM | 5.42 µM | 7.59 µM | – | – | – | – | – | – | – | – | – |
| O=c1[nH]cc(F)c(=O)[nH]1 [FLUOROURACIL] | > 6.64 | 12.2 µM | > 50 µM | – | > 50 µM | 0.26 | 22.9 µM | 26.6 µM | 0.02 | 28.6 µM | 112 µM | 513 µM | 936 µM | 0.05 |
| CCCCCCCCCCSC(CCCCCCCCCC)c1cc(OC)c2c(c1OC)/C(=N/O)C=C/C2=N\O (stereo not drawn) | > 1.42 | 40.3 µM | > 50 µM | 35.2 µM | > 50 µM | – | – | – | – | – | – | – | – | – |
| CCCCCCCCCCCCCCC(SC(=O)c1cc(OC)c(OC)c(OC)c1)c1cc(OC)c2c(c1OC)/C(=N/O)C=C/C2=N\O (stereo not drawn) | > 6.27 | 5.83 µM | > 50 µM | 7.98 µM | 9.68 µM | – | – | – | – | – | – | – | – | – |
